From patent US9233964B2, “Sulfamide piperazine derivatives as protein tyrosine kinase inhibitors and pharmaceutical use therof” (LEO PHARMA A/S, priority 2011, dated 2016)

Columns and labels:
Type in all cases: biochemical
JAK2 = molecular target: T1, JAK2 (Homo sapiens, UniProt O60674); assay: JAK kinase assay (HTRF, phosphorylation of synthetic peptide), JAK2; conditions: catalytic domain, ATP at Km (4 μM); read-out: JAK2 kinase inhibitory activity (EC50)
T1 construct: All four purified enzymes contain only the catalytic domain; His (N); purchased Carna Biosciences, Inc; host or cells: baculovirus expression system
Outline: (§1)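 Catalytic-domain human JAK1 (GST-tagged, aa 850-1154) or His-tagged JAK2, baculovirus-expressed, phosphorylated 1 µM biotinylated TK peptide at Km ATP (JAK1 7 µM, 10 mM MgCl2, 50 nM SEB; JAK2 4 µM, 5 mM MgCl2) in pH 7.0 Hepes, 20-30 min RT. EDTA stop; overnight streptavidin-XL665/cryptate HTRF read.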

JAK3 = molecular target: T2, JAK3 (Homo sapiens, UniProt P52333); assay: JAK kinase assay (HTRF, phosphorylation of synthetic peptide), JAK3; conditions: catalytic domain, ATP at Km (2 μM); read-out: JAK3 kinase inhibitory activity (EC50)
T2 construct: All four purified enzymes contain only the catalytic domain; His (N); purchased Carna Biosciences, Inc; host or cells: baculovirus expression system

TYK2 = molecular target: T3, TYK2 (Homo sapiens, UniProt P29597); assay: JAK kinase assay (HTRF, phosphorylation of synthetic peptide), TYK2; conditions: catalytic domain, ATP at Km (13 μM); read-out: TYK2 kinase inhibitory activity (EC50)
T3 construct: JAK1 (aa 850-1154) and TYK2 (aa 871-1187) are expressed with an N-terminally fused GST-tag; GST (N); purchased Carna Biosciences, Inc; host or cells: baculovirus expression system
T3 sequence (P29597 871-1187): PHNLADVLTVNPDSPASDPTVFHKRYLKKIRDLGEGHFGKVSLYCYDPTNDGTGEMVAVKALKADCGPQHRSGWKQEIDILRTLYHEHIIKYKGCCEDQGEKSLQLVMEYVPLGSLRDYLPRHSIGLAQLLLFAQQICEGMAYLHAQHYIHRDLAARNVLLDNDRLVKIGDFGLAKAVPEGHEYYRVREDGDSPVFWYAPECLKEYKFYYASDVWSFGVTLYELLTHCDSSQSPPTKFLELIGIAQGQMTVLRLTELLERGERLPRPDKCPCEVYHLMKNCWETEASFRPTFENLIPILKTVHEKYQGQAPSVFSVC
Outline: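 1 µM biotinylated TK peptide at Km ATP in pH 7.0 Hepes, 20-30 min RT. EDTA stop; overnight streptavidin-XL665/cryptate HTRF read.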

JAK1 = molecular target: T4, JAK1 (Homo sapiens, UniProt P23458); assay: JAK kinase assay (HTRF, phosphorylation of synthetic peptide), JAK1; conditions: catalytic domain, ATP at Km (7 μM); read-out: JAK1 kinase inhibitory activity (EC50)
T4 construct: JAK1 (aa 850-1154) and TYK2 (aa 871-1187) are expressed with an N-terminally fused GST-tag; GST (N); purchased Carna Biosciences, Inc; host or cells: baculovirus expression system
Outline: as §1

T4 sequence (P23458 850-1154): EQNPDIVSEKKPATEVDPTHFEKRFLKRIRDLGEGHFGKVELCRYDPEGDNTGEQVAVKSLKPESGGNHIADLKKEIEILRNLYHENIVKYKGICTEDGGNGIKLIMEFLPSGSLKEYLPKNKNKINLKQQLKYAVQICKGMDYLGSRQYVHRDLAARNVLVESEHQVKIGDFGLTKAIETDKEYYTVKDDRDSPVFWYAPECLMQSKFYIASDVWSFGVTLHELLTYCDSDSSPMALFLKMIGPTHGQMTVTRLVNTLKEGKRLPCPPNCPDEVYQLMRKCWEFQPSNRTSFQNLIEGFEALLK
T2 sequence (P52333 822-1111 limits assumed): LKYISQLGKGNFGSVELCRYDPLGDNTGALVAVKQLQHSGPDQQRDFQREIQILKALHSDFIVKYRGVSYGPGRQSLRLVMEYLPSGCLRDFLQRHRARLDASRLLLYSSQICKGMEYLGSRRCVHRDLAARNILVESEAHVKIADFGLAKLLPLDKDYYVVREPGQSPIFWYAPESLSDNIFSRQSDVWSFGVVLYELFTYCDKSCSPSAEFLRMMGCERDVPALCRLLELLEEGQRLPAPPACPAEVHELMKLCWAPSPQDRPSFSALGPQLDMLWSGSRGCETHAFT
T1 sequence (O60674 849-1124 limits assumed): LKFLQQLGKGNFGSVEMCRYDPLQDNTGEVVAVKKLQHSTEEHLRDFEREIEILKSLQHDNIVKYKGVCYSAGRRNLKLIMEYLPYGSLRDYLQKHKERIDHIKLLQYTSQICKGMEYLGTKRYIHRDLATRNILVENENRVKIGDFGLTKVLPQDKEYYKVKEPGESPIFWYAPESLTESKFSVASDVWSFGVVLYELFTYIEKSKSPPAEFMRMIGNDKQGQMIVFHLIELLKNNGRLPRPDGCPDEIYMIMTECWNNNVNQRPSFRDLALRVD

## CN(CC1CCNC1)S(=O)(=O)N1CCN(c2ncnc3[nH]ccc23)CC12CC2 (centres unmarked) [Int 25]
JAK2
  EC50: < 100 nM
JAK3
  EC50: 100 to 500 nM
TYK2
  EC50: > 500 nM
JAK1
  EC50: < 100 nM

## CN(C(=O)C1CCC(F)(F)CC1)S(=O)(=O)N1CCN(c2ncnc3[nH]ccc23)CC12CC2 [Example 130, 4,4-difluoro-N-methyl-N-[[5-(7H-pyrrolo[2,3-d]pyrimidin-4-yl)-5,8-diazaspiro[2.5]octan-8-yl]sulfonyl]cyclohexanecarboxamide]
JAK2
  EC50: < 100 nM
JAK3
  EC50: < 100 nM
TYK2
  EC50: 100 to 500 nM
JAK1
  EC50: < 100 nM

## CN(Cc1ccccn1)S(=O)(=O)N1CCN(c2ncnc3[nH]ccc23)CC12CC2 [Example 28, 7-(7H-Pyrrolo[2,3-d]pyrimidin-4-yl)-4,7-diaza-spiro[2.5]octane-4-sulfonic acid methyl-pyridin-2-ylmethyl-amide]
JAK2
  EC50: < 100 nM
JAK3
  EC50: 100 to 500 nM
TYK2
  EC50: 100 to 500 nM
JAK1
  EC50: < 100 nM

## CN(C)S(=O)(=O)c1ccc(CN(C)S(=O)(=O)N2CCN(c3ncnc4[nH]ccc34)CC23CC3)o1 [Example 65, N-[[5-(dimethylsulfamoyl)-2-furyl]methyl]-N-methyl-5-(7H-pyrrolo[2,3-d]pyrimidin-4-yl)-5,8-diazaspiro[2.5]octane-8-sulfonamide]
JAK2
  EC50: < 100 nM
JAK3
  EC50: 100 to 500 nM
TYK2
  EC50: 100 to 500 nM
JAK1
  EC50: < 100 nM

## CN(CC1CCN(C(=O)CCO)C1)S(=O)(=O)N1CCN(c2ncnc3[nH]ccc23)CC12CC2 (centres unmarked) [Example 123, N-[[1-(3-hydroxypropanoyl)pyrrolidin-3-yl]methyl]-N-methyl-5-(7H-pyrrolo[2,3-d]pyrimidin-4-yl)-5,8-diazaspiro[2.5]octane-8-sulfonamide]
JAK2
  EC50: < 100 nM
JAK3
  EC50: 100 to 500 nM
TYK2
  EC50: > 500 nM
JAK1
  EC50: < 100 nM

## CN(CC1CCCN(S(=O)(=O)CCCC#N)C1)S(=O)(=O)N1CCN(c2ncnc3[nH]ccc23)CC12CC2 (centres unmarked) [Example 161, N-[[1-(3-cyanopropylsulfonyl)-3-piperidyl]methyl]-N-methyl-5-(7H-pyrrolo[2,3-d]pyrimidin-4-yl)-5,8-diazaspiro[2.5]octane-8-sulfonamide]
JAK2
  EC50: < 100 nM
JAK3
  EC50: 100 to 500 nM
TYK2
  EC50: > 500 nM
JAK1
  EC50: < 100 nM

## O=S(=O)(N(Cc1ccccc1)Cc1ccccc1)N1CCN(c2ncnc3[nH]ccc23)CC12CC2 [Example 146, N,N-dibenzyl-5-(7H-pyrrolo[2,3-d]pyrimidin-4-yl)-5,8-diazaspiro[2.5]octane-8-sulfonamide]
JAK2
  EC50: 100 to 500 nM
JAK3
  EC50: > 500 nM
TYK2
  EC50: > 500 nM
JAK1
  EC50: 100 to 500 nM

## CC(C)NS(=O)(=O)N1CCN(c2ncnc3[nH]ccc23)CC12CC2 [Example 50, 7-(7H-Pyrrolo[2,3-d]pyrimidin-4-yl)-4,7-diaza-spiro[2.5]octane-4-sulfonic acid isopropylamide]
JAK2
  EC50: < 100 nM
JAK3
  EC50: 100 to 500 nM
TYK2
  EC50: 100 to 500 nM
JAK1
  EC50: 100 to 500 nM

## CC(CN(C)S(=O)(=O)N1CCN(c2ncnc3[nH]ccc23)CC12CC2)c1ccccc1 (centres unmarked) [Example 63, N-methyl-N-(2-phenylpropyl)-5-(7H-pyrrolo[2,3-d]pyrimidin-4-yl)-5,8-diazaspiro[2.5]octane-8-sulfonamide]
JAK2
  EC50: < 100 nM
JAK3
  EC50: < 100 nM
TYK2
  EC50: 100 to 500 nM
JAK1
  EC50: < 100 nM

## N#CCN(C1COC1)S(=O)(=O)N1CCN(c2ncnc3[nH]ccc23)CC12CC2 [Example 113, N-(cyanomethyl)-N-(oxetan-3-yl)-5-(7H-pyrrolo[2,3-d]pyrimidin-4-yl)-5,8-diazaspiro[2.5]octane-8-sulfonamide]
JAK2
  EC50: < 100 nM
JAK3
  EC50: < 100 nM
TYK2
  EC50: < 100 nM
JAK1
  EC50: < 100 nM

## CN(CC12C3C4C1C1C2C3C41C#N)S(=O)(=O)N1CCN(c2ncnc3[nH]ccc23)CC12CC2 (centres unmarked) [Example 177, N-[(4-cyanocuban-1-yl)methyl]-N-methyl-5-(7H-pyrrolo[2,3-d]pyrimidin-4-yl)-5,8-diazaspiro[2.5]octane-8-sulfonamide]
JAK2
  EC50: < 100 nM
JAK3
  EC50: < 100 nM
TYK2
  EC50: < 100 nM
JAK1
  EC50: < 100 nM

## CN(C(=O)C1CCS(=O)(=O)CC1)S(=O)(=O)N1CCN(c2ncnc3[nH]ccc23)CC12CC2 [Example 139, N-methyl-1,1-dioxo-N-[[5-(7H-pyrrolo[2,3-d]pyrimidin-4-yl)-5,8-diazaspiro[2.5]octan-8-yl]sulfonyl]thiane-4-carboxamide]
JAK2
  EC50: < 100 nM
JAK3
  EC50: < 100 nM
TYK2
  EC50: < 100 nM
JAK1
  EC50: < 100 nM

## CNS(=O)(=O)N1CCN(c2ncnc3[nH]ccc23)CC12CC2 [Int 3]
JAK2
  EC50: < 100 nM
JAK3
  EC50: < 100 nM
TYK2
  EC50: 100 to 500 nM
JAK1
  EC50: < 100 nM

## N#CCN(CC1CCS(=O)(=O)CC1)S(=O)(=O)N1CCN(c2ncnc3[nH]ccc23)CC12CC2 [Example 169, N-(cyanomethyl)-N-[(1,1-dioxothian-4-yl)methyl]-5-(7H-pyrrolo[2,3-d]pyrimidin-4-yl)-5,8-diazaspiro[2.5]octane-8-sulfonamide]
JAK2
  EC50: < 100 nM
JAK3
  EC50: < 100 nM
TYK2
  EC50: < 100 nM
JAK1
  EC50: < 100 nM

## CN(CC1CCN(C=O)C1)S(=O)(=O)N1CCN(c2ncnc3[nH]ccc23)CC12CC2 (centres unmarked) [Example 128, N-[(1-formylpyrrolidin-3-yl)methyl]-N-methyl-5-(7H-pyrrolo[2,3-d]pyrimidin-4-yl)-5,8-diazaspiro[2.5]octane-8-sulfonamide]
JAK2
  EC50: < 100 nM
JAK3
  EC50: < 100 nM
TYK2
  EC50: > 500 nM
JAK1
  EC50: < 100 nM

## CN(Cc1ccc(C#N)cc1)S(=O)(=O)N1CCN(c2ncnc3[nH]ccc23)CC12CC2 [Example 37, 7-(7H-Pyrrolo[2,3-d]pyrimidin-4-yl)-4,7-diaza-spiro[2.5]octane-4-sulfonic acid (4-cyano-benzyl)-methyl-amide]
JAK2
  EC50: < 100 nM
JAK3
  EC50: < 100 nM
TYK2
  EC50: 100 to 500 nM
JAK1
  EC50: < 100 nM

## COc1ccc(CNS(=O)(=O)N2CCN(c3ncnc4[nH]ccc34)CC23CC3)cc1 [Example 195, N-[(4-methoxyphenyl)methyl]-5-(7H-pyrrolo[2,3-d]pyrimidin-4-yl)-5,8-diazaspiro[2.5]octane-8-sulfonamide]
JAK2
  EC50: 100 to 500 nM
JAK3
  EC50: > 500 nM
TYK2
  EC50: > 500 nM
JAK1
  EC50: 100 to 500 nM

## O=CNS(=O)(=O)N1CCN(c2ncnc3[nH]ccc23)CC12CC2 [Example 176, N-[[5-(7H-pyrrolo[2,3-d]pyrimidin-4-yl)-5,8-diazaspiro[2.5]octan-8-yl]sulfonyl]formamide]
JAK2
  EC50: < 100 nM
JAK3
  EC50: 100 to 500 nM
TYK2
  EC50: > 500 nM
JAK1
  EC50: < 100 nM

## CC(=O)N(CC1CCS(=O)(=O)C1)S(=O)(=O)N1CCN(c2ncnc3[nH]ccc23)CC12CC2 (centres unmarked) [Example 172, N-[(1,1-dioxothiolan-3-yl)methyl]-N-[[5-(7H-pyrrolo[2,3-d]pyrimidin-4-yl)-5,8-diazaspiro[2.5]octan-8-yl]sulfonyl]acetamide]
JAK2
  EC50: < 100 nM
JAK3
  EC50: < 100 nM
TYK2
  EC50: 100 to 500 nM
JAK1
  EC50: < 100 nM

## CN(CC1CCCCO1)S(=O)(=O)N1CCN(c2ncnc3[nH]ccc23)CC12CC2 (centres unmarked) [Example 64, N-methyl-5-(7H-pyrrolo[2,3-d]pyrimidin-4-yl)-N-(tetrahydropyran-2-ylmethyl)-5,8-diazaspiro[2.5]octane-8-sulfonamide]
JAK2
  EC50: < 100 nM
JAK3
  EC50: 100 to 500 nM
TYK2
  EC50: 100 to 500 nM
JAK1
  EC50: < 100 nM
